# How the values were obtained:
# [1] = biological target: T1, epidermal growth factor receptor (EGFR) (Homo sapiens, UniProt P00533); assay: Kinase inhibition EGFR; type: biochemical; conditions: comparable to sunitinib
# [2] = biological target: platelet derived growth factor receptor-β (PDGFR-β) (Homo sapiens, UniProt P09619); assay: Kinase inhibition PDGFRβ; type: biochemical; conditions: comparable to sunitinib
# [3] = biological target: vascular endothelial growth factor receptor (VEGFR2, Flk-1) (Homo sapiens, UniProt P35968); assay: Kinase inhibition VEGFR2; type: biochemical; conditions: comparable to sunitinib
# [4] = biological target: T1, epidermal growth factor receptor (EGFR); conditions: does not inhibit EGFR even at these concentrations; cited from earlier work
# T1 sequence (P00533 25-1210, species assumed): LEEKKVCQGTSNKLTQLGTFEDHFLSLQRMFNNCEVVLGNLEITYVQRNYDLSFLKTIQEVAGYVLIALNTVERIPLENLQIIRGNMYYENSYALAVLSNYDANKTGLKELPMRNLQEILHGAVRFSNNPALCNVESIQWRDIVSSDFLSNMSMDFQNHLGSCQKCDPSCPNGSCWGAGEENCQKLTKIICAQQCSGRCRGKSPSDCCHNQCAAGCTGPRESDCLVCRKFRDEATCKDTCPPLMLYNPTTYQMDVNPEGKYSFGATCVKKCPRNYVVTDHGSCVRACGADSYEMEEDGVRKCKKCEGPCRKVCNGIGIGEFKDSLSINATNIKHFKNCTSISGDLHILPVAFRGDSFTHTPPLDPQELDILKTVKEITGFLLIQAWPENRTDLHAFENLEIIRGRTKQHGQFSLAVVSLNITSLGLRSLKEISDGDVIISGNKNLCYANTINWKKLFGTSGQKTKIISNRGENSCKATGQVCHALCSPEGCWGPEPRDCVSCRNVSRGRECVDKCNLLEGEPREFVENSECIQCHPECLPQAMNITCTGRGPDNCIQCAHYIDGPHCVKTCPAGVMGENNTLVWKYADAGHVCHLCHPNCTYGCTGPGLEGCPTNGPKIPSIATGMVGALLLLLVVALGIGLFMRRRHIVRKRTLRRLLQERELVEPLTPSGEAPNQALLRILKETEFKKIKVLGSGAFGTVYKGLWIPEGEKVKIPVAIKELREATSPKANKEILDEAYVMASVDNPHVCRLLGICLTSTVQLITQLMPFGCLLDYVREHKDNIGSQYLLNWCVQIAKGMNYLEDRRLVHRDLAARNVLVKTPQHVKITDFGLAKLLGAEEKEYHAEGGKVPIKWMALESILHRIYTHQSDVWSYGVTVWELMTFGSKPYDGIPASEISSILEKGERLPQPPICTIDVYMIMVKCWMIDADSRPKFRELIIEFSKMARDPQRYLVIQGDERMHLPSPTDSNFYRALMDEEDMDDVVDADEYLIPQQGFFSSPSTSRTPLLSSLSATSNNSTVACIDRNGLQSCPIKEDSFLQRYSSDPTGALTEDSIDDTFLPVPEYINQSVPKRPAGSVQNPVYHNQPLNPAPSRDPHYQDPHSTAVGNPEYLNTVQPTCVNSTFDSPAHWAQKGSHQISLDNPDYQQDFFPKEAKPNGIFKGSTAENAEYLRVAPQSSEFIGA
# vascular endothelial growth factor receptor (VEGFR2, Flk-1), sequence (P35968 20-1356): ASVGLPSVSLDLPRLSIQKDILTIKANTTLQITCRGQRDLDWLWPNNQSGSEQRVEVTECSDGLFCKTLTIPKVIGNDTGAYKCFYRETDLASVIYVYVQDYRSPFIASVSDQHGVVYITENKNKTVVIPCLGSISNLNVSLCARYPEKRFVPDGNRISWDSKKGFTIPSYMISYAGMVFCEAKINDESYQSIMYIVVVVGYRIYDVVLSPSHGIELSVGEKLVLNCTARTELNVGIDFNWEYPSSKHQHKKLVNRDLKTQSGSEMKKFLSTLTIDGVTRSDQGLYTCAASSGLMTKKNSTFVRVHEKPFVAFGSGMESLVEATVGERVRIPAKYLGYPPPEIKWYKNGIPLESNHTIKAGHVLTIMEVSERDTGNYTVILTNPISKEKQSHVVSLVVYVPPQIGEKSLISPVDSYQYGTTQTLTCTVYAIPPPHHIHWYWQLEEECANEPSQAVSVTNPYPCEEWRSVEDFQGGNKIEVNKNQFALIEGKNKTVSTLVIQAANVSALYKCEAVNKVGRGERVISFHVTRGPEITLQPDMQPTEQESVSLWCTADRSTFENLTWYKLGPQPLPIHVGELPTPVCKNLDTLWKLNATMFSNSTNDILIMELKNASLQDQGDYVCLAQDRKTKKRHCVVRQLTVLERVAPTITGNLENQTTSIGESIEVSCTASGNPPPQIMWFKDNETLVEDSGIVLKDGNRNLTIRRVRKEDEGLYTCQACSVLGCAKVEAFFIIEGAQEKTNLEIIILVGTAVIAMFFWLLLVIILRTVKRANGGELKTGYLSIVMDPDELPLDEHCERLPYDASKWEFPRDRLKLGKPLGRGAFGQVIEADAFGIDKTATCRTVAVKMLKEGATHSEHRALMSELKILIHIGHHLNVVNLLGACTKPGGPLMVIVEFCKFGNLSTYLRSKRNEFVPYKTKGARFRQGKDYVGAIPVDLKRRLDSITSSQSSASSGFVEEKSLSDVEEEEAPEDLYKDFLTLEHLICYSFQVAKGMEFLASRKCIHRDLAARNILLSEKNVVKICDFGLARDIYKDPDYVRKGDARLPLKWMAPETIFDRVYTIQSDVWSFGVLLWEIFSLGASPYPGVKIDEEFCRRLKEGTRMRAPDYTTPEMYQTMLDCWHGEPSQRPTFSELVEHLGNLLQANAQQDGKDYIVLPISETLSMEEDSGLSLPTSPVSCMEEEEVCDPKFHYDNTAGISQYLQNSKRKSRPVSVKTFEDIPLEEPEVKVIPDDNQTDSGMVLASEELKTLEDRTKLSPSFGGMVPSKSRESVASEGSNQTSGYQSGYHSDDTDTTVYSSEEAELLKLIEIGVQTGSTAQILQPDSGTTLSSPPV
# platelet derived growth factor receptor-β (PDGFR-β), sequence (P09619 33-1106, species assumed): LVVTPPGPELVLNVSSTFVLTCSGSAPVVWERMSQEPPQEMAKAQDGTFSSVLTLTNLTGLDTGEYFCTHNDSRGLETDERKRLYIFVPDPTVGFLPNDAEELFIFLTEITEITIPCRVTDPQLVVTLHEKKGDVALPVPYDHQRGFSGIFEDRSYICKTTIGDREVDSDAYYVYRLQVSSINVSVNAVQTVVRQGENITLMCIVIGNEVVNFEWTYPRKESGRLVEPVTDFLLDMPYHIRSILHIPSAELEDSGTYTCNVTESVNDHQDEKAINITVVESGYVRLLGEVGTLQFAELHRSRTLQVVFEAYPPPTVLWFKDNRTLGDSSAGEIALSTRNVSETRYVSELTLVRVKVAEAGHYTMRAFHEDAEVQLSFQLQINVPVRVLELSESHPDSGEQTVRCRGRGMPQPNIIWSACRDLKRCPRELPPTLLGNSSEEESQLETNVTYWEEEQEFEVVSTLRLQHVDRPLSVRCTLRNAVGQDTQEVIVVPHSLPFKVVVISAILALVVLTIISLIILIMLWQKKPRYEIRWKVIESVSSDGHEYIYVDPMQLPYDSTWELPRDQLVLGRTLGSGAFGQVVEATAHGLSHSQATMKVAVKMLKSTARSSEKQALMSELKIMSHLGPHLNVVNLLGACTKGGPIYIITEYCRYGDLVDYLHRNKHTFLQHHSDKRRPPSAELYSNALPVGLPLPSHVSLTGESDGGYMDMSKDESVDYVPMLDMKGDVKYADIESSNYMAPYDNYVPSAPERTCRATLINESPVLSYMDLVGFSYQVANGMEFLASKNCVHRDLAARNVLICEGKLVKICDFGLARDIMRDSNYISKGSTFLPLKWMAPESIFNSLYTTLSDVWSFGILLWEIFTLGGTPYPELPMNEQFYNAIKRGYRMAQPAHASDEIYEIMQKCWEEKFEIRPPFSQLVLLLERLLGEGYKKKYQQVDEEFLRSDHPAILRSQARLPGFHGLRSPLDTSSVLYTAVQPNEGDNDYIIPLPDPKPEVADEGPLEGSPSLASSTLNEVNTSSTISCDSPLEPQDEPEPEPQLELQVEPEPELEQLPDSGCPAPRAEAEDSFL
structure (smiles),measurement,setting,value
COc1ccc2c(c1)CCCN2c1nc(C)nc2c1[nH]c1ccccc12 [Composition 106],"EGFR kinase inhibition (in words, FIG. 16)",[1],potent inhibitors
same,"PDGFR kinase inhibition (in words, FIG. 16)",[2],potent inhibitors
same,"Flk-1 (VEGR2) kinase inhibition (in words, FIG. 16)",[3],potent inhibitors
CN(C)c1ccc(/C=C2\C(=O)Nc3ccccc32)cc1 [DMBI],concentration at which EGFR is not inhibited,[4],greater than 100 μM

# — US11618758B2, “Bicyclic and tricyclic pyrimidine tyrosine kinase inhibitors with antitubulin activity and methods of treating a patient” (Duquesne University of the Holy Spirit, priority 2011, dated 2023)
